Measured values published in US20090156477A1, “Compositions and Methods for Regulating Inflammatory Responses” (Massachusetts Institute of Technology, priority 2005, published 2009).

Tests used:
Format in all cases: cell-based, human
Caco-2 cells = assay: Caco-2 proliferation assay (whole cell number); settings: for increased whole cell number: 100 ng/ml ligand, three days, vs PBS control
Procedure: Caco-2 cells were grown to just prior to confluence, and T84 cells were grown to confluence. Each flask was washed with 20 ml PBS and treated with 3 ml trypsin-EDTA at 37° C. for 20-60 minutes until cells detached. Cells were centrifuged for 3 minutes at 195×g. The supernatant was aspirated, and the cells were resuspended in 10 ml media. The cell density was measured using an electronic cell counter, and the suspension was diluted to 50,000 cells/ml. The suspension was plated at 1 ml/well into 12-well tissue culture plates. After a 24 hour incubation in a 5% CO2, 37° C. humidified incubator, the media was aspirated, the wells were washed with serum free media, and the cells were supplemented with media containing 0.1% FBS. The wells were then supplemented with 10 μl PBS, 50 mM sodium chlorate, or 200 μM TM, and incubated for 24 hours. Subsequently, cells were supplemented with 100 ng/ml FGF1, FGF2, FGF7, or 10 μl PBS, and incubated for 72 hours. Wells were then washed twice with PBS and treated with 0.5 ml trypsin-EDTA/well and incubated at 37° C. until cells detached. Whole cell number was determined using an electronic cell counter. Data was averaged over three experiments, each consisting of four wells per condition.

Wnt1 = assay: RT-PCR expression in Caco-2 cells after FGF treatment: Wnt1; settings: normalized to PBS treatment, defined as 1.0
From the text: (§1) Five μg of total RNA was isolated from Caco-2 cells using Trizol reagent (Life Tech, Rockville, Md.) followed by reverse transcription with random hexamers. Specific oligomers were designed based on published sequences in order to detect the expression of specific human Wnt, Fz and syndecan isoforms. Sequences of primer pairs were as follows: Wnt-1: 5′-CACGACCTCGTCTACTTCGAC-3′ (SEQ ID NO: 17) and 5′-ACAGACACTCGTGCAGTACGC-3′ (SEQ ID NO: 18); Wnt-2: 5′-CATGGTGGTACATGAGAGCTAC-3′ (SEQ ID NO: 19) and 5′-GGCAAATACAACTCCAGCTGAG-3′ (SEQ ID NO: 20); Wnt-3: 5′-GAGAGCCTCCCCGTCCACAG-3′ (SEQ ID NO: 21) and 5′-CTGCCAGGAGTGTATTCGCATC-3′ (SEQ ID NO: 22); Wnt-3a: 5′-CAGGAACTACGTGGAGATCATG-3′ (SEQ ID NO: 23) and 5′-CCATCCCACCAAACTCGATGTC-3′ (SEQ ID NO: 24); Fz-1: 5′-GAACTTTCCTCCAACTTCATGGC-3′ (SEQ ID NO: 25) and 5′-CATTTCCATTTTACAGACCGG-3′ (SEQ ID NO: 26); Fz-2: 5′-GGTGAGCCAGCACTGCAAGAG-3′ (SEQ ID NO: 27) and 5′-CCTAAAAGTGAAATGGTTTCGATCG-3′ (SEQ ID NO: 28); Fz-10: 5′-ACACGTCCAACGCCAGCATG-3′ (SEQ ID NO: 29) and 5′-ACGAGTCATGTTGTAGCCGATG-3′ (SEQ ID NO: 30); and Syndecan-1/Sdc-1/CD138: 5′-CTTCACACTCCCCACACAGA-3′ (SEQ ID NO: 31) and 5′-TCCTGTTTGGTGGGCTTCTG-3′ (SEQ ID NO: 32). To control for total cell […], RT-PCR was also performed on β-actin using the primers 5′-GCCAGCTCACCATGGATGATGATAT-3′ (SEQ ID NO: 33) and 5′-GCTTGCTGATCCACATCTGCTGGAA-3′ (SEQ ID NO: 34). PCR was performed using the Advantage-GC cDNA kit from Clontech as per manufacturer's instructions (Palo Alto, Calif.).

Wnt3 = assay: RT-PCR expression in Caco-2 cells after FGF treatment: Wnt3; settings: normalized to PBS treatment, defined as 1.0
From the text: as §1

Fz1 = assay: RT-PCR expression in Caco-2 cells after FGF treatment: Fz1; settings: normalized to PBS treatment, defined as 1.0
From the text: as §1

Fz2 = assay: RT-PCR expression in Caco-2 cells after FGF treatment: Fz2; settings: normalized to PBS treatment, defined as 1.0
From the text: as §1

Sdc-1 = assay: RT-PCR expression in Caco-2 cells after FGF treatment: Sdc-1; settings: normalized to PBS treatment, defined as 1.0
From the text: as §1

Molecule | effect of added agent on proliferative effect of FGF2 and FGF7 (Caco-2 cells; TM 200 μM, FGF1 added to TM treated cells) | proliferation (in words) (Caco-2 cells; over three days) | Wnt1 expression (intensity of RT-PCR images) (Wnt1) | Wnt3 expression (intensity of RT-PCR images) (Wnt3) | Fz1 expression (intensity of RT-PCR images) (Fz1) | Fz2 expression (intensity of RT-PCR images) (Fz2) | Sdc-1 expression (intensity of RT-PCR images) (Sdc-1) | increased whole cell number (Caco-2 cells) [%]
FGF1: Recombinant human FGF1 from Amgen | restored the proliferative capacity of these ligands | did not induce the proliferation | 2.2 | 1.3 | 1.5 | 0.7 | 1.3 | –
FGF2: Recombinant human FGF2, produced as described | – | – | 2.7 | 1.3 | 1.1 | 1.7 | 0.9 | 20.2±7.4
FGF7: Recombinant human FGF7 from Sigma (protein, UniProt P21781 32-194, looked up) Fibroblast growth factor 7: CNDMTPEQMATNVNCSSPERHTRSYDYMEGGDIRVRRLFCRTQWYLRIDKRGKVKGTQEMKNNYNIMEIRTVAVGIVAIKGVESEFYLAMNKEGKLYAKKECNEDCNFKELILENHYNTYASAKWTHNGGEMFVALNQKGIPVRGKKTKKEQKTAHFLPMAIT | – | – | 5.1 | 1.2 | 2.4 | 1.6 | 0.6 | 16.4±8.9
